Reference: ChEMBL document CHEMBL2157914, “Synthesis, anti-inflammatory and antimicrobial evaluation of novel 1-acetyl-3,5-diaryl-4,5-dihydro (1H) pyrazole derivatives bearing urea, thiourea and sulfonamide moieties” (2012)
Converted amounts (≈) assume the structure as drawn. The source made the active and inactive calls. The rule behind the calls is not given here.

Legend:
Candida albicans [1] = test: Antifungal activity against Candida albicans MTCC 227 after 2 to 3 days by agar well diffusion method; assay type: functional
Aspergillus flavus [2] = test: Antifungal activity against Aspergillus flavus MTCC 277 after 2 to 3 days by agar well diffusion method; assay type: functional
Aspergillus niger [3] = test: Antifungal activity against Aspergillus niger MTCC 281 after 2 to 3 days by agar well diffusion method; assay type: functional
Salmonella typhimurium [4] = test: Antibacterial activity against Salmonella typhimurium MTCC 98 after 24 hrs by agar well diffusion method; assay type: functional, Salmonella enterica subsp. enterica serovar Typhimurium; conditions: Salmonella enterica, MTCC 98, 24 h
Staphylococcus aureus [5] = test: Antibacterial activity against Staphylococcus aureus MTCC 96 after 24 hrs by agar well diffusion method; assay type: functional; conditions: MTCC 96, 24 h
Bacillus subtilis [6] = test: Antibacterial activity against Bacillus subtilis MTCC 441 after 24 hrs by agar well diffusion method; assay type: functional; conditions: MTCC 441, 24 h
THP-1 [7] = test: Antiinflammatory activity in human THP1 cells assessed as inhibition of LPS-stimulated TNFalpha production at 10 uM incubated for 30 mins prior to LPS-challenge measured 24 hrs post LPS challenge by ELISA; assay type: functional
THP-1 [8] = test: Antiinflammatory activity in human THP1 cells assessed as inhibition of LPS-stimulated IL-6 production at 10 uM incubated for 30 mins prior to LPS-challenge measured 24 hrs post LPS-challenge by ELISA; assay type: functional
Fusarium solani [9] = test: Antifungal activity against Fusarium solani MTCC 350 after 2 to 3 days by agar well diffusion method; assay type: functional
Escherichia coli = test: Antibacterial activity against Escherichia coli MTCC 443 after 24 hrs by agar well diffusion method; assay type: functional; conditions: MTCC 443, 24 h
Fusarium solani [10] = test: Antifungal activity against Fusarium solani MTCC 350 up to 200 ug/mL after 2 to 3 days by agar well diffusion method; assay type: functional, organism-based
Staphylococcus aureus [11] = test: Antibacterial activity against Staphylococcus aureus MTCC 96 up to 200 ug/mL after 24 hrs by agar well diffusion method; assay type: functional, organism-based
Aspergillus niger [12] = test: Antifungal activity against Aspergillus niger MTCC 281 up to 200 ug/mL after 2 to 3 days by agar well diffusion method; assay type: functional, organism-based
Bacillus subtilis [13] = test: Antibacterial activity against Bacillus subtilis MTCC 441 up to 200 ug/mL after 24 hrs by agar well diffusion method; assay type: functional, organism-based
Candida albicans [14] = test: Antifungal activity against Candida albicans MTCC 227 up to 200 ug/mL after 2 to 3 days by agar well diffusion method; assay type: functional, organism-based
Salmonella typhimurium [15] = test: Antibacterial activity against Salmonella typhimurium MTCC 98 up to 200 ug/mL after 24 hrs by agar well diffusion method; assay type: functional, organism-based; conditions: Salmonella enterica subsp. enterica serovar Typhimurium
Aspergillus flavus [16] = test: Antifungal activity against Aspergillus flavus MTCC 277 up to 200 ug/mL after 2 to 3 days by agar well diffusion method; assay type: functional, organism-based

SMILES	MIC (Candida albicans [1]) [µg/mL]	MIC (Aspergillus flavus [2]) [µg/mL]	MIC (Aspergillus niger [3]) [µg/mL]	MIC (Salmonella typhimurium [4]) [µg/mL]	MIC (Staphylococcus aureus [5]) [µg/mL]	MIC (Bacillus subtilis [6]) [µg/mL]	inhibition at 10 µM (THP-1 [7]) [%]	inhibition at 10 µM (THP-1 [8]) [%]	MIC (Fusarium solani [9]) [µg/mL]	MIC (Escherichia coli) [µg/mL]	Activity (Fusarium solani [10])	Activity (Staphylococcus aureus [11])	Activity (Aspergillus niger [12])	Activity (Bacillus subtilis [13])	Activity (Candida albicans [14])	Activity (Salmonella typhimurium [15])	Activity (Aspergillus flavus [16])
COc1ccc(C2=NN(C(C)=O)C(c3ccc(NC(=O)Nc4ccccc4C(F)(F)F)cc3)C2)cc1OC (centres undefined)	80 (≈ 152 µM)	80 (≈ 152 µM)	90 (≈ 171 µM)	90 (≈ 171 µM)	75 (≈ 142 µM)	90 (≈ 171 µM)	61	80	75 (≈ 142 µM)	60 (≈ 114 µM)	–	–	–	–	–	–	–
COc1ccc(C2=NN(C(C)=O)C(c3ccc(NS(=O)(=O)c4ccc(Br)cc4)cc3)C2)cc1OC (centres undefined)	25 (≈ 44.8 µM)	40 (≈ 71.6 µM)	15 (≈ 26.9 µM)	30 (≈ 53.7 µM)	30 (≈ 53.7 µM)	65 (≈ 116 µM)	0	0	15 (≈ 26.9 µM)	30 (≈ 53.7 µM)	–	–	–	–	–	–	–
COc1ccc(C2=NN(C(C)=O)C(c3ccc([N+](=O)[O-])cc3)C2)cc1OC (centres undefined)	90 (≈ 244 µM)	90 (≈ 244 µM)	90 (≈ 244 µM)	90 (≈ 244 µM)	90 (≈ 244 µM)	50 (≈ 135 µM)	0	0	–	65 (≈ 176 µM)	inactive	–	–	–	–	–	–
COc1ccc(C2=NN(C(C)=O)C(c3ccc(NS(=O)(=O)c4cc(F)ccc4C)cc3)C2)cc1OC (centres undefined)	30 (≈ 58.6 µM)	20 (≈ 39.1 µM)	60 (≈ 117 µM)	40 (≈ 78.2 µM)	55 (≈ 108 µM)	20 (≈ 39.1 µM)	0	0	20 (≈ 39.1 µM)	20 (≈ 39.1 µM)	–	–	–	–	–	–	–
COc1ccc(C2=NN(C(C)=O)C(c3ccc(NC(=O)Nc4ccccc4OC(F)(F)F)cc3)C2)cc1OC (centres undefined)	40 (≈ 73.7 µM)	30 (≈ 55.3 µM)	75 (≈ 138 µM)	60 (≈ 111 µM)	55 (≈ 101 µM)	40 (≈ 73.7 µM)	58	75	60 (≈ 111 µM)	40 (≈ 73.7 µM)	–	–	–	–	–	–	–
Clc1ccc(COC(Cn2ccnc2)c2ccc(Cl)cc2Cl)c(Cl)c1 (centres undefined) [MICONAZOLE]	20 (≈ 48.1 µM)	20 (≈ 48.1 µM)	15 (≈ 36 µM)	–	–	–	–	–	15 (≈ 36 µM)	–	–	–	–	–	–	–	–
COc1ccc(C2=NN(C(C)=O)C(c3ccc(N)cc3)C2)cc1OC (centres undefined)	–	–	–	–	–	–	0	0	–	90 (≈ 265 µM)	inactive	inactive	inactive	inactive	inactive	inactive	inactive
COc1ccc(C2=NN(C(C)=O)C(c3ccc(NS(=O)(=O)c4ccc(OC)c(OC)c4)cc3)C2)cc1OC (centres undefined)	–	–	–	90 (≈ 167 µM)	–	90 (≈ 167 µM)	0	0	90 (≈ 167 µM)	90 (≈ 167 µM)	–	inactive	inactive	–	inactive	–	inactive
COc1ccc(C2=NN(C(C)=O)C(c3ccc(NC(=O)Nc4ccccc4F)cc3)C2)cc1OC (centres undefined)	80 (≈ 168 µM)	80 (≈ 168 µM)	80 (≈ 168 µM)	80 (≈ 168 µM)	60 (≈ 126 µM)	80 (≈ 168 µM)	85	93	90 (≈ 189 µM)	45 (≈ 94.4 µM)	–	–	–	–	–	–	–
COc1ccc(C2=NN(C(C)=O)C(c3ccc(NC(=S)Nc4ccccc4F)cc3)C2)cc1OC (centres undefined)	80 (≈ 162 µM)	90 (≈ 183 µM)	–	90 (≈ 183 µM)	80 (≈ 162 µM)	80 (≈ 162 µM)	78	84	90 (≈ 183 µM)	55 (≈ 112 µM)	–	–	inactive	–	–	–	–
COc1ccc(C2=NN(C(C)=O)C(c3ccc(NC(=O)Nc4ccc(C(C)C)cc4)cc3)C2)cc1OC (centres undefined)	20 (≈ 40 µM)	20 (≈ 40 µM)	40 (≈ 79.9 µM)	55 (≈ 110 µM)	30 (≈ 59.9 µM)	40 (≈ 79.9 µM)	11	16	20 (≈ 40 µM)	30 (≈ 59.9 µM)	–	–	–	–	–	–	–
COc1ccc(C2=NN(C(C)=O)C(c3ccc(NS(=O)(=O)c4ccc(C)cc4)cc3)C2)cc1OC (centres undefined)	70 (≈ 142 µM)	90 (≈ 182 µM)	90 (≈ 182 µM)	90 (≈ 182 µM)	90 (≈ 182 µM)	90 (≈ 182 µM)	0	0	65 (≈ 132 µM)	75 (≈ 152 µM)	–	–	–	–	–	–	–
